Results: ChEMBL document CHEMBL1177739, “Fast-forwarding hit to lead: aurora and epidermal growth factor receptor kinase inhibitor lead identification” (J Med Chem, 2010)

Legend:
HCT-116 = experiment: Cytotoxicity against human HCT116 cells by MTS assay; type: functional, cell-based
Aurora kinase A = biological target: T1, Aurora kinase A (Homo sapiens, UniProt O14965)
T1 sequence (O14965 whole entry): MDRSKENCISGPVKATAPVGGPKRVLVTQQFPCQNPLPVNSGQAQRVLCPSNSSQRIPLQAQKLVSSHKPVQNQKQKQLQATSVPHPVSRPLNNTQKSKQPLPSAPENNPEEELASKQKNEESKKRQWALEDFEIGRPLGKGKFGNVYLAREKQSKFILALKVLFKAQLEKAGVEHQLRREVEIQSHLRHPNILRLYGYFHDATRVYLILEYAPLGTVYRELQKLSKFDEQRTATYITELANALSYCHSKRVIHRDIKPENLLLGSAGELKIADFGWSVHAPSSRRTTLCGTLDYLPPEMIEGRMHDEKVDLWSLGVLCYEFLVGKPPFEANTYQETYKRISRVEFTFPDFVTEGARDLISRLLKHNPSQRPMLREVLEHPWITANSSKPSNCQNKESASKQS

[1] = biological target: T2, Epidermal growth factor receptor (Homo sapiens, UniProt P00533)
T2 sequence (P00533 whole entry): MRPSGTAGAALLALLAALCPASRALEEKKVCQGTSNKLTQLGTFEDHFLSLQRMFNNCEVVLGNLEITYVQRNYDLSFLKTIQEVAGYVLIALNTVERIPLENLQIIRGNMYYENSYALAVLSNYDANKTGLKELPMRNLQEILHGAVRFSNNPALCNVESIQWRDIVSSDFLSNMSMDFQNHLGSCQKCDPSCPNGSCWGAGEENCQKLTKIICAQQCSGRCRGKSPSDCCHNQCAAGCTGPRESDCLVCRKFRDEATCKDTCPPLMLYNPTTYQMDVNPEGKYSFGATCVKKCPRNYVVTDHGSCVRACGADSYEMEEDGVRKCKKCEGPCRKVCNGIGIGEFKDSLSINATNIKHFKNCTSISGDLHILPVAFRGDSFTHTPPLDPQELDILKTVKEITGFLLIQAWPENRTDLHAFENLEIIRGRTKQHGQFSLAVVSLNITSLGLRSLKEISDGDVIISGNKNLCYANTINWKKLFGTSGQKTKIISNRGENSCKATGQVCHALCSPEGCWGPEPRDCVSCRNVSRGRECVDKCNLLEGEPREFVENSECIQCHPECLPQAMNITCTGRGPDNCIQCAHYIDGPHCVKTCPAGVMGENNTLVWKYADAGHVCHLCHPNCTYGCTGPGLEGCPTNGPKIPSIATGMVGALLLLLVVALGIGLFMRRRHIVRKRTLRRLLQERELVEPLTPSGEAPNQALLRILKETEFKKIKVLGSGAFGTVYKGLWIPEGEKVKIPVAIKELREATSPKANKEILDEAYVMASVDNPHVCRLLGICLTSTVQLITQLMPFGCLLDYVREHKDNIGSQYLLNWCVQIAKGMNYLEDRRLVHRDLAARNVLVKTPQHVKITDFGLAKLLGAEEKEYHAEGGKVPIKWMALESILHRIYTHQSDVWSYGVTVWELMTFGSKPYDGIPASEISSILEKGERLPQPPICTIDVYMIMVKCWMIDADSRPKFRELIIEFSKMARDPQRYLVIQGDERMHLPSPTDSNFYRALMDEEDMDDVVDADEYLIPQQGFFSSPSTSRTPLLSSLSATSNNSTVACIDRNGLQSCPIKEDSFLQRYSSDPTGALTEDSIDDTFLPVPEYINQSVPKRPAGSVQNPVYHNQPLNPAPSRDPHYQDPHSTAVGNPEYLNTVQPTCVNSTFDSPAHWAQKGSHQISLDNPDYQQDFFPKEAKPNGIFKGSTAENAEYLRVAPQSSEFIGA
Description: Inhibition of GST-tagged EGFR expressed in Escherichia coli

[2] = biological target: Epidermal growth factor receptor (Homo sapiens, UniProt P00533, L858R/T790M)
Chain of Epidermal growth factor receptor (Homo sapiens, UniProt P00533, L858R/T790M) (P00533 25-1210 T790M/L858R limits assumed): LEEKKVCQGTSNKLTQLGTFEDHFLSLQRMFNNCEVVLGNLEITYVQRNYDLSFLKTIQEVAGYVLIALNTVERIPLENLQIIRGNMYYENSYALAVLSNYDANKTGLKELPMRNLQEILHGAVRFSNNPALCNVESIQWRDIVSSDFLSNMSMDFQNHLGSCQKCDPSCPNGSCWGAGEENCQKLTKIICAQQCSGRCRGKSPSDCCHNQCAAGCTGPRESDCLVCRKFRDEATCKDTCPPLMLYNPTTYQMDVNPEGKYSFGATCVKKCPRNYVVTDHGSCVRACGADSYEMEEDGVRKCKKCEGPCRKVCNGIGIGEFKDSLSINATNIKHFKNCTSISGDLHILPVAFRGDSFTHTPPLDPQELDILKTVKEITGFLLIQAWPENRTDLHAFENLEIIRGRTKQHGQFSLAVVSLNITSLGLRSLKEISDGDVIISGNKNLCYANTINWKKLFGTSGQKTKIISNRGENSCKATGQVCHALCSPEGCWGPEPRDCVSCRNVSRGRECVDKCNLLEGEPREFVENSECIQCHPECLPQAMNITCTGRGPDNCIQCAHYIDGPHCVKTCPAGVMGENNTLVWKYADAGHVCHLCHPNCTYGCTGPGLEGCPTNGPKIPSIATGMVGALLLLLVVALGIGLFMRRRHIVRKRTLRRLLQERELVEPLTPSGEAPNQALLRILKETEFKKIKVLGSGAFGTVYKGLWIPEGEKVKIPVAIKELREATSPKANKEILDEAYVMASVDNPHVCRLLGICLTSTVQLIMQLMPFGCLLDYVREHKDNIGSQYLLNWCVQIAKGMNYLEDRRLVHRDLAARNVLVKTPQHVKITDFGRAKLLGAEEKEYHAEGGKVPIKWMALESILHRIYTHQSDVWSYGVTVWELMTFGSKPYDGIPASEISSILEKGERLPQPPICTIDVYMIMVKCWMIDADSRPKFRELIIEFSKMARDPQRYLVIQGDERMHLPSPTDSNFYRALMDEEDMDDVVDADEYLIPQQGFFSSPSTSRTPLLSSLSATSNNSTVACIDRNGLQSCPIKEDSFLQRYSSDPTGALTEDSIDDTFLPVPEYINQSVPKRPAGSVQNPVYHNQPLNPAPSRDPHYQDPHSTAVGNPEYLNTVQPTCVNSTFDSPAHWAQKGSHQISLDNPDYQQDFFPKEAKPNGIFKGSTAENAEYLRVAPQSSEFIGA

cells = details: Homo sapiens, HCC827, 96 h
Description: Antiproliferative activity against human HCC827 cells after 96 hrs by MTS assay

[3] = biological target: T2, Epidermal growth factor receptor; details: 20 uM
Description: Inhibition of GST-tagged EGFR expressed in Escherichia coli at 20 uM

[4] = biological target: T3, Aurora kinase A (Homo sapiens) (UniProt O14965); experiment: Inhibition of Aurora A at 10 uM
T3 sequence (whole entry): T1 sequence (O14965 whole entry)

## O=C(Nc1ccccc1)Nc1ccc(CCNc2ncnc3oc(-c4ccccc4)c(-c4ccccc4)c23)cc1
HCT-116
  IC50: 400 nM

## OCCOCCNc1ncnc2oc(-c3ccccc3)c(-c3ccccc3)c12
Aurora kinase A
  IC50: 760 nM

## C[C@@H](O)CNc1ncnc2oc(-c3ccccc3)c(-c3ccccc3)c12
Aurora kinase A
  IC50: 973 nM

## Cc1cc(Nc2cc(N3CCN(C)CC3)nc(Sc3ccc(NC(=O)C4CC4)cc3)n2)n[nH]1 [TOZASERTIB]
HCT-116
  IC50: 120 nM

## C=CC(=O)Nc1ccc(-c2c(-c3ccccc3)oc3ncnc(N[C@H](CO)c4ccccc4)c23)cc1
[1]
  IC50: 82 nM
[2]
  IC50: > 10000 nM
cells
  IC50: 394 nM

## Nc1ccc(CCNc2ncnc3oc(-c4ccccc4)c(-c4ccccc4)c23)cc1
HCT-116
  IC50: > 10000 nM
Aurora kinase A
  IC50: 640 nM

## OC[C@@H](Nc1ncnc2oc(-c3ccccc3)c(-c3ccccc3)c12)c1ccccc1
[1]
  IC50: 223 nM
[2]
  IC50: > 10000 nM
cells
  IC50: 518 nM
[3]
  inhibition: > 80%

## Nc1ccc(CNc2ncnc3oc(-c4ccccc4)c(-c4ccccc4)c23)cc1
Aurora kinase A
  IC50: 945 nM

## CC1CN(c2ncnc3oc(-c4ccccc4)c(-c4ccccc4)c23)CC(C)N1 (configuration not stated)
Aurora kinase A
  IC50: 334 nM

## C[C@@H](CO)Nc1ncnc2oc(-c3ccccc3)c(-c3ccccc3)c12
Aurora kinase A
  IC50: 792 nM

## c1ccc(-c2oc3ncnc(NCCN4CCOCC4)c3c2-c2ccccc2)cc1
[4]
  inhibition: 81.7%
Aurora kinase A
  IC50: 1770 nM

## c1ccc(-c2oc3ncnc(NCCc4c[nH]cn4)c3c2-c2ccccc2)cc1
[4]
  inhibition: 91.4%

## O=C(CCNc1ncnc2oc(-c3ccccc3)c(-c3ccccc3)c12)Nc1ccccc1
HCT-116
  IC50: > 10000 nM
Aurora kinase A
  IC50: > 10000 nM

## c1ccc(-c2oc3ncnc(NCCc4ccccn4)c3c2-c2ccccc2)cc1
Aurora kinase A
  IC50: 535 nM

## OCCNc1ncnc2oc(-c3ccccc3)c(-c3ccccc3)c12
[4]
  inhibition: 98.2%
Aurora kinase A
  IC50: 309 nM

## COC1C=CC(CNc2ncnc3oc(-c4ccccc4)c(-c4ccccc4)c23)(OC)O1 (configuration not stated)
Aurora kinase A
  IC50: 827 nM

## Oc1ccc(CCNc2ncnc3oc(-c4ccccc4)c(-c4ccccc4)c23)cc1
Aurora kinase A
  IC50: 640 nM

## OC1CCN(c2ncnc3oc(-c4ccccc4)c(-c4ccccc4)c23)CC1
[4]
  inhibition: 85.8%
Aurora kinase A
  IC50: 807 nM

## O=C(Nc1ccc(CCNc2ncnc3oc(-c4ccccc4)c(-c4ccccc4)c23)cc1)c1ccccc1
HCT-116
  IC50: > 10000 nM
Aurora kinase A
  IC50: 304 nM

## c1ccc(-c2oc3ncnc(NCCCn4ccnc4)c3c2-c2ccccc2)cc1
[4]
  inhibition: 73.8%
Aurora kinase A
  IC50: 3310 nM

## CCOC(=O)CCNc1ncnc2oc(-c3ccccc3)c(-c3ccccc3)c12
HCT-116
  IC50: > 10000 nM
Aurora kinase A
  IC50: 796 nM

## c1ccc(-c2oc3ncnc(NCCc4cnc[nH]4)c3c2-c2ccccc2)cc1
Aurora kinase A
  IC50: 296 nM

## O=S(=O)(Nc1ccc(CCNc2ncnc3oc(-c4ccccc4)c(-c4ccccc4)c23)cc1)c1ccccc1
HCT-116
  IC50: > 10000 nM
Aurora kinase A
  IC50: 5830 nM
